Consider five compounds from paper PMC6368574, “Probing the Inhibition of Microtubule Affinity Regulating Kinase 4 by N-Substituted Acridones” (Scientific Reports, 2019).

Read-outs that look alike come from different tables or passages of the source.

Test [1] concerns the target T1, recombinant MARK4 (Homo sapiens, UniProt Q96L34).
T1 construct: made in house; host or cells: bacterial cells (Luria-Bertani broth, IPTG induction)
T1 sequence (Q96L34 1-752): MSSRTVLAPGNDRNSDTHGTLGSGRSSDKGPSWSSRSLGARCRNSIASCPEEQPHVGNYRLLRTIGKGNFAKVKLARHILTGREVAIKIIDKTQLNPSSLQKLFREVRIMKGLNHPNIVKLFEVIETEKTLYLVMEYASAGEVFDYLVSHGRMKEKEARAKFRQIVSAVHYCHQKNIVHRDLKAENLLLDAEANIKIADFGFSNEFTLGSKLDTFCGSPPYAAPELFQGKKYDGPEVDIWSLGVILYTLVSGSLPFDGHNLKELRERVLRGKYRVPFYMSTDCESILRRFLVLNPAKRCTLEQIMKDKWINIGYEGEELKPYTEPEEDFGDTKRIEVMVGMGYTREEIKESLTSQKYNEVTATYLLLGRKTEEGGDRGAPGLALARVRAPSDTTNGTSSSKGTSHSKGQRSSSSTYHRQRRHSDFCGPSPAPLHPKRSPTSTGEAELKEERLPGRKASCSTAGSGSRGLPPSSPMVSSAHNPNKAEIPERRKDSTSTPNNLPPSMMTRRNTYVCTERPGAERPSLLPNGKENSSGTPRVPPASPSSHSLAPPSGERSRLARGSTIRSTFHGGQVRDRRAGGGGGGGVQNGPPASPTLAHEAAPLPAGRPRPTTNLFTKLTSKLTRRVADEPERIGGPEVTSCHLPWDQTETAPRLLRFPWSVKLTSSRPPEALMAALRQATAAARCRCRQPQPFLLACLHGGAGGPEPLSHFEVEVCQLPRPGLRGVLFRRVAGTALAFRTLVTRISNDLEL
The test is described as follows: ATPase enzyme inhibition assay (Malachite Green). The format is biochemical. How it is done:
To evaluate the inhibition activity of synthesized acridone derivatives against recombinant MARK4, ATPase enzyme inhibition assay was performed (Table S3). […] Our studies were initiated by replacing the ester group of 5 with sterically and electronically diverse amines affording the corresponding amides 7a–j, in order to establish favorable interactions with residues Ala135, Val70, Asp196 and/or Glu182. […] In this case, the docking studies indicate a better fit of 7h compared with 7g in the active site of MARK4 with a binding energy of −9.5 kcal/mol and a stronger predicted hydrogen bond with Ala135 (3.06 Å for 7h, 3.19 Å for 7g).
Enzyme activity of MARK4 was evaluated with the help of standard Malachite Green (Biomol Green reagent, Enzo Life Sciences) microtitre-plate assay as described earlier. Estimated amount of MARK4 (200 ng) and 20 µM ATP as a substrate were incubated for 10–15 min at 25 °C with increasing concentrations (0–20 µM) of synthesized acridone derivatives, in 20 mM Tris buffer, pH 8.0. Reaction was terminated by the adding 100 µl of Biomol Green reagent and absorbance of final reaction products was recorded at 620 nm in a multiplate ELSIA reader (BioRad). In order to quantify the hydrolyzed phosphate, inorganic phosphate standard curve were prepared from the phosphate standard solutions as supplied by the manufacturer (Biomol Green reagent, Enzo Life Sciences). All data points represent triplicate measurements from at least three independent experiments.

In test [2] the target is T1, recombinant MARK4. Description: Isothermal titration calorimetry. The class given is binding. The following applies: for ITC binding in words: at lower stoichiometry, at high concentration they precipitate with MARK4; for Kd: read-out: Ka (converted). An excerpt: In order to measure the actual binding affinity and stoichiometry of selected compounds with the recombinant MARK4, isothermal titration calorimetry (ITC) has been carried out. Negative heat impulses in the upper panel of each isotherm indicate exothermic nature of binding. The amount of heat produced as a result of each injection helps to deliver the molar ratio of studied compound to that of MARK4. Thermodynamic parameters associated with binding of MARK4-compounds (Ka, binding constant and ΔH, enthalpy change) are shown in Table 1.
Figure 5 ITC measurement showing the titration of selected acridone derivatives with recombinant MARK4. (Top) Raw data plot of heat produced against time for the titration of 1000–1500 µM (A) compound 7b, (B) compound 7d, (C) compound 7f, into 20–25 µM MARK4. (Bottom) Corresponding binding isotherm obtained after integration of peak area and normalization to yield a plot of molar enthalpy change against each compound-MARK4 ratio.
ITC experiments were performed on a VP-ITC microcalorimeter (MicroCal, Inc. GE, MicroCal, USA) by following our previously published protocols[41],[47]. For sample preparation, recombinant MARK4 was extensively dialyzed in 20 mM Tris buffer, pH 8.5 and the working solutions of acridone derivatives were prepared in last dialyzing buffer. The titration data so obtained was analyzed with the help of MicroCal Origin 7.0 software provided with the instrument. The thermodynamic parameters of binding such as association constant (Ka), stoichiometry of binding (n), and enthalpy change (ΔH) were determined by fitting the binding isotherm into the ‘one-set of sites’ binding model.
On the technique in general: ITC needs no label: the signal is the heat of the interaction.

Test [3] concerns panel of kinases of CAMK family. Description: Single dose kinase inhibition profiling (ADP-Glo). The format is biochemical. The following applies: single dose of 10 µM. An excerpt: The selectivity of kinase inhibitors is commonly evaluating them against a panel of closely related kinases based on the hypothesis that off-target interfaces are more likely to be associated with same/different families of kinases with similar amino acid sequence. So, we evaluated the fraction of kinase targets that are within the same kinase family (CAMK family). […] These kinase selectivity results signify the use of these compounds as potential and selective inhibitors towards MARK4.
Figure 7 Kinase selectivity and tau-phosphorylation assay. Kinase selectivity results of (A) compound 7b, (B) compound 7d, (C) compound 7f. The selected panel of kinases was incubated with 10 µM dose of selected compounds and analyzed for percent activity values. The percent kinase activity was calculated in the compound-containing reactions and plotted in terms of percent kinase activity inhibition. (D) Representative flow cytometry histogram of SH-SY5Y cell fractions stained with phosphorylated anti-tau antibodies, each histogram represents the phosphorylation status of tau under different treatments as mentioned in inset.
In vitro profiling of the twenty five members of CAMK family (CAMK-1 and CAMK-2) of kinases was performed with the help of kinase screening kit by following the manufacturer’s protocols (Promega, Madison, USA). Briefly, add desired concentration of each compound (10 µM) to corresponding well of 384-well assay plate. Consecutively, 2 µl of kinase working stock solution was added to each wells of assay plate. Gently mix the reaction mixture on a plate shaker for 2 minutes, centrifuge the assay plate to bring mixture of reagents to the bottom of the wells. Incubate the plate at room temperature (25 °C) for 10 minutes. […] After the completion of reaction, measure the luminescence using an integration time of 0.5 seconds per well. Using net luminescence of the no-compound control (negative control) reactions to represent 100% kinase activity, the percent kinase activity was calculated in the compound-containing reactions and plotted in terms of percent kinase activity inhibition.
(In general: ADP-Glo turns the ADP formed in a reaction into a luminescent signal.)

[4] abbreviates: ATPase inhibition, 20 µM ATP, read-out: IC50 against MARK4.
Where [5] appears, read: Table 1, from enzyme inhibition, read-out: IC50, (µM), MARK4.

As a reminder, the IC50 is the concentration at which inhibition is half-maximal. With `COC(=O)Cn1c2ccccc2c(=O)c2cc(C)ccc21` [Compound 5, Methyl 2-(2-methyl-9-oxoacridin-10(9H)-yl)acetate], the IC50 at recombinant MARK4 [1] (setting [4]) was determined as 14.1 ± 1.02 µM. Also, the “ITC binding in words” value on recombinant MARK4 [2] is listed as “do not show significant binding”.
Turning to `Cc1ccc2c(c1)c(=O)c1ccccc1n2CC(=O)NCc1ccccc1` [Compound 7b, N-benzyl-2-(2-methyl-9-oxoacridin-10(9H)-yl)acetamide], the within-family kinase selectivity entry in test [3] was “more strongly inhibits MARK4 as compared to other kinases of same family”. The concentration for half-maximal inhibition (IC50) at recombinant MARK4 [1] (setting [5]) was found to be 1.8 ± 0.04 µM. Moreover, the Kd at recombinant MARK4 [2] (from ITC, single-site fitting) was 15.6 µM.
The corresponding values for `COc1ccc(CNC(=O)Cn2c3ccccc3c(=O)c3cc(C)ccc32)cc1` [Compound 7d, N-(4-methoxybenzyl)-2-(2-methyl-9-oxoacridin-10(9H)-yl)acetamide] are “more strongly inhibits MARK4 as compared to other kinases of same family”, 2.2 ± 0.05 µM and 15.8 µM.
In the case of `Cc1ccc(NC(=O)Cn2c3ccccc3c(=O)c3cc(C)ccc32)cc1` [Compound 7f, 2-(2-Methyl-9-oxoacridin-10(9H)-yl)-N-(p-tolyl)acetamide], the within-family kinase selectivity entry in test [3] was “more strongly inhibits MARK4 as compared to other kinases of same family”. Also, the IC50 on recombinant MARK4 [1] (setting [5]) came to 4.5 ± 0.52 µM. On recombinant MARK4 [2] (from ITC, single-site fitting), the ΔH is recorded as −3.01 × 10^4 ± 590.10 cal/mol and the Kd was 7.41 µM.
As for `COc1ccccc1NC(=O)Cn1c2ccccc2c(=O)c2cc(C)ccc21` [Compound 7h, N-(2-methoxyphenyl)-2-(2-methyl-9-oxoacridin-10(9H)-yl)acetamide], on recombinant MARK4 [1] (setting [4]), the IC50 stood at 12.1 ± 1.1 µM. Moreover, the “ITC binding in words” value on recombinant MARK4 [2] was “do not show significant binding”.
